Several values for one entry are separate records, joined by “and”; a condition that tells them apart may be missing. Equal entries are not always repeated.
Tests used:
[1] = system: Aβ peptides in CHO-2B7 cells; test: IP/MS (MALDI-TOF) Aβ profile of CHO-2B7 conditioned media; type: cell-based, Chinese hamster; conditions: 3 μM, vs DMSO control
Method: Chinese hamster ovary (CHO) cells stably overexpressing APP695 (CHO-2B7 cells) were grown in Ham’s F-12 medium (Life Technologies) supplemented with 10 % fetal bovine serum and 100 units/ml of penicillin and 100 μg/ml streptomycin. Cells were grown at 37 °C in a humidified atmosphere containing 5 % CO2 in tissue culture plates (Costar). The cells were harvested at confluence and then utilized for biochemical analyses. Compounds were dissolved in dimethyl sulfoxide (DMSO) and screened in CHO-2B7 cells. The cells were incubated for 16 h in the presence of the compound diluted into OptiMEM-reduced serum medium (Life Technologies, Carlsbad, CA, USA) containing 1 % fetal bovine serum.
Conditioned media from the CHO-2B7 cells and the samples prepared from in vitro γ-secretase studies were used to analyze Aβ and AICD profiles using matrix-assisted laser desorption/ionization time of flight (MALDI-TOF) mass spectrometry analysis. The secreted Aβ peptides were analyzed as previously described with the following modifications. Briefly, the Aβ peptides were immunoprecipitated using Ab5 recognizing the Aβ1-16 epitope and sheep anti-mouse IgG magnetic Dynabeads (Life Technologies, catalog no. 11201D) and the AICD fragments were captured using anti-Flag M2 magnetic beads (Sigma). […] Samples were analyzed using a Bruker Microflex LRF-MALDI-TOF mass spectrometer.

[2] = system: primary mouse motor neuron; design: method as in PMID 25271621; conditions: cited from earlier work
[3] = Plasma CA concentration after IP injection (HPLC-MS-MS); type: in vivo, mouse (C57BL/6); conditions: mice
Method: 25(R)-CA powder was initially dissolved in DMSO (<4.5 % in the final mixture) and then combined with polyethylene glycol (15)-hydroxystearate (Solutol), ethanol, and water at a ratio of (15:10:75). One molar equivalent of sodium hydroxide was added to the mixture. We performed CA intraperitoneal (IP) injections to wild-type mice (C57BL/6 or CF-1). The mice were injected with 25(R)-CA on the right side of the abdomen. The injections have been performed with various time points (30 min, 1 h, 2 h, and 3 h) and with multiple doses (30 mg per kg (mg/kg), 60 mg/kg, 75 mg/kg and 100 mg/kg). The number of each cohort is 6–8. We used 30 mg/kg of CA for the time-course experiments, and for the dose–response experiments the end-point was set at 30 min. The brains and serum are harvested and frozen for brain Aβ extraction.
The plasma samples were extracted using published solid phase extraction method (72) and analyzed by HPLC-MS-MS. Briefly, 0.1 ml mouse plasma samples after adding 20 μl of D3-CA as internal standard were preconditioned with 1.4 ml of ethanol (99.9 %), and 0.5 ml of water, centrifuged at 4 °C, 4000 rpm for 10 min. This solution was then loaded onto a Sep-Pak tC18 (SPE1) solid phase extraction cartridge which were preconditioned with 70 % ethanol. […]

CC(CCC[C@@H](C)C(=O)O)[C@H]1CCC2C3CC=C4C[C@@H](O)CC[C@]4(C)C3CC[C@@]21C (stereo partly drawn) [Cmpd 2a, 25(R)-cholestenoic acid]
Aβ spectra by mass spectrometry [1]: increased Aβ38 peak and decreased Aβ42 peak with no significant changes in Aβ40 peak | toxicity to primary mouse motor neuron in cultures [2]: toxic | plasma CA concentration ([3]; 30 mg/kg IP, listed as CA): 200 ng/mL and ~ 500 nM | concentration at 30 min ([3]; C57BL/6, mouse, plasma, intraperitoneal, 100 mg/kg IP): 4000 ng/mL and ~10 µM
